Data on 48 compounds can be found in ChEMBL document CHEMBL5614408, “Indole-core inhibitors of influenza a neuraminidase: iterative medicinal chemistry and molecular modeling” (Eur J Med Chem, 2024).

In series [1] the target is Neuraminidase (Influenza A virus (A/Puerto Rico/8/1934(H1N1)), UniProt P03468). Put plainly: Inhibition of Influenza A virus A/Puerto Rico/8/34 (H1N1) neuraminidase assessed as reduction in neuraminidase activity by chemiluminescence based assay.
Series [2] has as its system Influenza A virus. Description: Antiviral activity against Influenza A virus A/Puerto Rico/8/34 (H1N1) infected in MDCK cells assessed as inhibition of viral infection preincubated with cells for 1 hrs followed by viral infection and measured after 48 hrs by hemagglutination assay. Format: functional, organism-based.
The nature of series [3]: Selectivity index, ratio of CC50 for cytotoxicity against MDCK cells to IC50 for antiviral activity against Influenza A virus A/Puerto Rico/8/34 (H1N1) infected in MDCK cells. Format: toxicity, cell-based. To be noted: dog, read-out: Ratio CC50/IC50.
The next series concerns MDCK. Description: (§1) Cytotoxicity against MDCK cells assessed as inhibition of cell growth incubated for 48 hrs by MTS assay. Format: toxicity, cell-based, Canis lupus familiaris. To be noted: dog, mdck, 48 h. For orientation: Tetrazolium dyes change colour on reduction, which living cells bring about.
The nature of series [4]: as §1. Format: toxicity, cell-based, Canis lupus familiaris. To be noted: dog, MDCK cells.
Series [5] has as its system Influenza A virus. Put plainly: Antiviral activity against influenza A virus A/California/04/2009 (H1N1) infected in female BALB/c mouse model assessed as survival rate at 20 mg/kg, po pretreated for 4 hrs followed by twice daily compound administration 4 hrs post viral infection and measured on day 11 post infection relative to control. The conditions noted are these: 264 h, time 11 day. Format: functional.

For series [6], the system named is Influenza A virus. Description: Antiviral activity against influenza A virus A/California/04/2009 (H1N1) infected in female BALB/c mouse model assessed as inhibition of viral replication in lungs at 50 mg/kg, po pretreated for 4 hrs followed by twice daily compound administration 4 hrs post viral infection and measured on day 4 post infection. To be noted: time 4.0 day. Format: functional, organism-based.

Series [7] relates to Influenza A virus. Put plainly: Antiviral activity against influenza A virus A/California/04/2009 (H1N1) infected in female BALB/c mouse model assessed as survival rate at 50 mg/kg, po pretreated for 4 hrs followed by twice daily compound administration 4 hrs post viral infection and measured on day 11 post infection relative to control. Format: functional. To be noted: 264 h, time 11 day.

The subject of series [8] is Influenza A virus. Put plainly: Antiviral activity against influenza A virus A/California/04/2009 (H1N1) infected in female BALB/c mouse model assessed as reduction in body weight loss at 20 mg/kg, po pretreated for 4 hrs followed by twice daily compound administration 4 hrs post viral infection and measured on day 11 post infection. Format: functional, organism-based. The conditions noted are these: time 11.0 day.

For orientation: IC50 means the concentration that gives 50% inhibition. By CC50 is commonly meant the concentration that lowers cell viability or growth by half.

The source made the active and inactive calls. The calls are words filed in the database; no cut-off is given here.

Chain of Neuraminidase (Influenza A virus (A/Puerto Rico/8/1934(H1N1)), UniProt P03468) (P03468 whole entry): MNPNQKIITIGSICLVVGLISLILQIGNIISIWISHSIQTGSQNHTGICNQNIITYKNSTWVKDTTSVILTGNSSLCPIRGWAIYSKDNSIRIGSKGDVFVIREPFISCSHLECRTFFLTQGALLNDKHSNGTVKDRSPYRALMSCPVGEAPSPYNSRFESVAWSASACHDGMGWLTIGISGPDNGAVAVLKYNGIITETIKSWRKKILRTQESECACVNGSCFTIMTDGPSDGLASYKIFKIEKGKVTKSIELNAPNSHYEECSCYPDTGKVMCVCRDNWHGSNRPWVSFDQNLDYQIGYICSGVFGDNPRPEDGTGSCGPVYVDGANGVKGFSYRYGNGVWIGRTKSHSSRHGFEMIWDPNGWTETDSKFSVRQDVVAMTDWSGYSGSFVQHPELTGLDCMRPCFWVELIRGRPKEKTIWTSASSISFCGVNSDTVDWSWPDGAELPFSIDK

For the compound `CC(=O)N1/C(=C/Nc2cccc(Cc3ccccc3)c2)C(=O)c2ccccc21`, the IC50 in [1] came out at 0.2 µM. Take `COc1cccc(N/C=C2\C(=O)c3ccccc3N2C(C)=O)c1`: the IC50 in series [1] amounted to 0.37 µM. For the compound `CCCCOc1ccc(N/C=C2\C(=O)c3ccccc3N2C(C)=O)cc1`, in [1], the IC50 was 0.42 µM. Take `CCOC(=O)c1cccc(N/C=C2\C(=O)c3ccccc3N2C(C)=O)c1`: the IC50 in series [1] was found to be 0.28 µM. For the compound `CC(=O)N1/C(=C/Nc2ccccc2)C(=O)c2ccccc21`, the IC50 in [1] is 0.37 µM. The same measure, in the same setting: the figure for `CCOC(=O)c1cccc(N/C=C2\C(=O)c3cccnc3N2C(C)=O)c1` is 9.84 µM. Regarding `COc1ccc(N/C=C2\C(=O)c3cc(OC)ccc3N2C(C)=O)cc1`, the IC50 in series [1] worked out at 1.7 µM.

On to `CC(=O)N1/C(=C/Nc2cccc(C(F)(F)F)c2)C(=O)c2ccccc21`, for which the IC50 in series [1] was determined as 0.96 µM.

As for `O=C1/C(=C\NCc2ccccc2)Nc2ccccc21`, the IC50 in series [1] was 12.9 µM. For `CC(=O)N1/C(=C/Nc2ccc(Nc3ccccc3)cc2)C(=O)c2ccccc21`, the IC50 in series [1] is 0.76 µM. Take `CC(=O)N1/C(=C/Nc2cc(F)c(F)c(F)c2)C(=O)c2ccccc21`: in series [1], the IC50 came to 1 µM. In the case of `CC(=O)N1/C(=C/Nc2ccc(F)cc2)C(=O)c2ccccc21`, the IC50 in [1] was 0.34 µM. Consider `CC(=O)N1/C(=C/Nc2ccc(Cc3ccccc3)cc2)C(=O)c2ccccc21`, for which the half-maximal inhibitory concentration (IC50) is 111 µM in the series on Influenza A virus [2] and 0.1 µM in series [1]. The selectivity ratio in [3] was determined as 16. Further, the CC50 in the series on MDCK is 1740 µM. For the compound `CC(=O)N1/C(=C/Nc2ccc(Cl)cc2)C(=O)c2ccccc21`, in [1], the half-inhibitory concentration (IC50) was found to be 1.39 µM.

As to `COc1cc(N/C=C2\C(=O)c3ccccc3N2C(C)=O)cc(OC)c1OC`, the IC50 in [1] turned out to be 2.71 µM.

On to `CCC(=O)N1/C(=C/Nc2ccc(OC)cc2)C(=O)c2ccccc21`, for which, in [1], the IC50 is 0.73 µM. Turning to `CC(=O)N1/C(=C/Nc2ccccc2C(F)(F)F)C(=O)c2ccccc21`, the IC50 in series [1] was 0.58 µM. Same read-out and setting: the figure for `CCOC(=O)c1cccc(N/C=C2\C(=O)c3cc(Cl)ccc3N2C(C)=O)c1` is 2.03 µM; for `CC(=O)N1/C(=C/Nc2cccc(Oc3ccccc3)c2)C(=O)c2ccccc21` it is 0.5 µM. Regarding `CC(=O)N1/C(=C/Nc2cccc(Oc3ccccc3)c2)C(=O)c2cccnc21`, the IC50 in the series with Influenza A virus [2] is 120 µM. Further, the selectivity ratio in series [3] is 5. The CC50 at 48 h in [4] was determined as 540 µM.

As for `O=C1/C(=C\Nc2ccc(Cl)cc2)Nc2ccccc21`, the IC50 in series [1] amounted to 1.85 µM.

With `COc1ccc(N/C=C2/Nc3ccccc3C2=O)cc1`, in series [1], the IC50 was 3.01 µM. With `CC(=O)N1/C(=C/Nc2ccc(C(F)(F)F)cc2)C(=O)c2ccccc21`, in series [1], the IC50 came out at 0.77 µM.

`COc1ccc(N/C=C2\C(=O)c3ccccc3N2C(C)=O)cc1OC`: the IC50 in [1] came to 25.2 µM. As for `CCOC(=O)C1=C[C@@H](OC(CC)CC)[C@H](NC(C)=O)[C@@H](N)C1` [OSELTAMIVIR], in the series on Influenza A virus [5], the survival at 20 mg/kg stood at 50%.

Turning to `CC(=O)N1/C(=C/NCc2ccc(F)c(F)c2)C(=O)c2ccccc21`, the IC50 in series [1] worked out at 11.1 µM. On the same count and under the same terms, the figure for `CC(=O)N1/C(=C/Nc2ccc(OC(F)(F)F)cc2)C(=O)c2ccccc21` is 5.13 µM; for `CC(=O)N1/C(=C/Nc2cccc(F)c2)C(=O)c2cccnc21` it is 1.42 µM. For the compound `COc1ccccc1N/C=C1\C(=O)c2ccccc2N1C(C)=O`, the IC50 in series [1] turned out to be 1.08 µM.

As for `CC(=O)N1/C(=C/Nc2cc(F)cc(F)c2)C(=O)c2ccccc21`, the IC50 in series [1] came to 0.53 µM. On to `CC(=O)N1/C(=C/Nc2cccc(OC(F)(F)F)c2)C(=O)c2ccccc21`, for which the IC50 in the series on Influenza A virus [2] stood at 3 µM; in series [1], 0.2 µM. Also, in [3], the selectivity ratio amounted to 35. Moreover, the outcome with Influenza A virus [6] and in the series on Influenza A virus [8] was Active. In the series on MDCK, the CC50 was 105 µM. The survival at 50 mg/kg in the series on Influenza A virus [7] was determined as 30%. Take `CC(=O)N1/C(=C/Nc2cccc(S(N)(=O)=O)c2)C(=O)c2ccccc21`: in [1], the IC50 amounted to 0.64 µM. Turning to `CCOc1ccc(N/C=C2\C(=O)c3ccccc3N2C(C)=O)cc1`, the IC50 in [1] stood at 0.62 µM. In the case of `O=C1/C(=C\Nc2ccccc2)Nc2ccccc21`, in [1], the IC50 was 5.36 µM. As to `COc1ccc(N/C=C2\C(=O)c3ccccc3N2C)cc1`, in [1], the half-maximal inhibitory concentration (IC50) worked out at 1 µM. Consider `CCC(=O)N1/C(=C/Nc2cccc(F)c2)C(=O)c2ccccc21`, for which the IC50 in the series with Influenza A virus [2] was 11.3 µM; in series [1], 0.23 µM. Besides, the selectivity ratio in series [3] stood at 8. Further, the CC50 in the series on MDCK is 95 µM. Take `COc1ccc(OC)c(N/C=C2\C(=O)c3ccccc3N2C(C)=O)c1`: the IC50 in series [1] is 0.99 µM.

`COc1ccc(N/C=C2\C(=O)c3cccnc3N2C(C)=O)cc1`: the IC50 in [1] was determined as 2 µM.

Consider `COc1ccc(N/C=C2\C(=O)c3ccccc3N2C(C)=O)cc1`, for which the figures for the IC50 (in the series with Influenza A virus [2]; in series [1]) were 12 µM and 0.1 µM, respectively. The selectivity ratio in [3] was 151. The CC50 in the series with MDCK was found to be 1810 µM.

Regarding `CC(=O)N1/C(=C/Nc2cccc(F)c2F)C(=O)c2ccccc21`, the IC50 in series [1] was determined as 0.95 µM. Consider `COc1ccc(N/C=C2\C(=O)c3cc(Cl)ccc3N2C(C)=O)cc1`, for which, in [1], the IC50 is 5.43 µM. Consider `CCC(=O)N1/C(=C/Nc2ccc(F)cc2)C(=O)c2ccccc21`, for which the IC50 in series [1] amounted to 0.43 µM.

In the case of `CCC(=O)N1/C(=C/Nc2ccc(F)c(F)c2)C(=O)c2ccccc21`, the IC50 in series [1] amounted to 0.3 µM.

As for `CC(=O)N1/C(=C/Nc2ccncc2)C(=O)c2ccccc21`, the IC50 in [1] was found to be 1.08 µM. With `CCOC(=O)c1cccc(N/C=C2\C(=O)c3cc(OC)ccc3N2C(C)=O)c1`, the IC50 in series [1] worked out at 1.33 µM. In the case of `CC(=O)N1/C(=C/Nc2ccc(F)c(F)c2)C(=O)c2ccccc21`, the IC50 in [1] turned out to be 0.47 µM.

Regarding `CC(=O)N1/C(=C/Nc2cccc(F)c2)C(=O)c2ccccc21`, the IC50 in the series on Influenza A virus [2] was 33.8 µM; in series [1] it was 0.03 µM. Besides, in series [3], the selectivity ratio was 44. For the same compound, the result with Influenza A virus [6] and in the series with Influenza A virus [8] was Active. The CC50 in the series on MDCK turned out to be 1480 µM. Also, the survival at 50 mg/kg with Influenza A virus [7] was determined as 30%.

Take `CC(=O)N1/C(=C/Nc2ccccn2)C(=O)c2ccccc21`: the IC50 in series [1] was 1.19 µM.
